From patent publication US20230129258A1, “HETEROTANDEM BICYCLIC PEPTIDE COMPLEXES” (BicycleTx Limited, priority 2019, published 2023)
Values joined by “and” are separate entries in the source; they are usually repeats but may differ in a detail not shown here. Equal entries are not always repeated. Where two headings read alike, the source gives them in different places. Starred links: 1 amine or outer side, 2 acyl side, 3 side chain; linkers in the order of their positions; H or OH if unused. Positions of bridges follow the written chain, without caps; N, C: chain ends. Non-standard residues stand in square brackets, D forms with d. Chains are numbered I, II in the order given. X1 = O=C(CCOCCOCCOCCN(CCOCCOCCOCCn1cc(CCC(=O)[*:2])nn1)CCOCCOCCOCCn1cc(CCC(=O)[*:3])nn1)[*:1]; TATA = O=C(CC[*:1])N1CN(C(=O)CC[*:2])CN(C(=O)CC[*:3])C1; d1Nal = N[C@H](Cc1cccc2ccccc12)C(=O)O; Hyp = O=C(O)[C@@H]1C[C@@H](O)CN1; hArg = N=C(N)NCCCC[C@H](N)C(=O)O; tBuAla = CC(C)(C)C[C@H](N)C(=O)O; Nle = CCCC[C@H](N)C(=O)O

Tests used:
[1] = Pharmacokinetic profiles in plasma and tumor tissue of CT26 #7 tumor bearing animals; assay type: in vivo, BALB/c mice; conditions: female, BALB/c, mouse, single iv 5 mg/kg
Protocol: 6-8 weeks old BALB/c female mice were inoculated in the flank with 3×10^5 syngeneic Nectin-4 overexpressing CT26 cells (CT26 #7). When tumors reached around 400 mm^3 size on average, mice were randomized to receive a single intravenous dose of vehicle or 5 mg/kg BCY11863. A cohort of mice (n=3/timepoint) were sacrificed at 0.25, 0.5, 1, 2, 4, 8 and 24 h timepoints and harvested plasma and tumor tissue were analyzed for BCY11863. For tumor BCY11863 content analysis, tumor homogenate was prepared by homogenizing tumor tissue with 10 volumes (w:v) of homogenizing solution (MeOH/15 mM PBS (1:2, v:v)). 40 μL of sample was quenched with 200 μL IS1 and the mixture was mixed by vortexing for 10 min at 800 rpm and centrifuged for 15 min at 3220 g at 4° C. The supernatant was transfer to another clean 96-well plate and centrifuged for 5 min at 3220 g at 4° C., and 10.0 μL of supernatant was then injected for LC-MS/MS analysis using an Orbitrap Q Exactive in positive ion mode to determine the concentrations of analyte. For plasma BCY11863 content analysis, blood samples were collected in K2-EDTA tubes and immediately processed to plasma by centrifugation at approximately 4° C., 3000 g. 40 μL of plasma sample was quenched with 200 μL IS1 and the mixture was mixed by vortexing for 10 min at 800 rpm and centrifuged for 15 min at 3220 g at 4° C. […]

CT26 #7 tumors = assay: Anti-tumor activity in syngeneic Nectin-4 overexpressing CT26 tumor model (CT26 #7); assay type: in vivo, BALB/c-hCD137 mice; conditions: 5 mg/kg ip Q3D, 6 doses; from day 7 forward
Protocol: 6-8 weeks old BALB/c-hCD137 female mice were inoculated in the flank with 3×10^5 syngeneic Nectin-4 overexpressing CT26 cells (CT26 #7). When tumors reached around 70 mm^3 size on average, mice were randomized to receive vehicle or 5 mg/kg BCY11863 intraperitoneally every three days (6 doses total). Tumor growth was monitored by caliper measurements until day 14 after treatment initiation.

CD137 = CD137 (Homo sapiens, UniProt Q07011); assay: CD137 reporter assay (Promega, Jurkat cells) in co-culture with EphA2-expressing tumor cells (A549, PC3, HT29); assay type: cell-based; design: host or cells: Jurkat reporter cells; conditions: for EC50: EC50 (nM); for EC50 / Emax: individual replicates
CD137, sequence (Q07011 24-255): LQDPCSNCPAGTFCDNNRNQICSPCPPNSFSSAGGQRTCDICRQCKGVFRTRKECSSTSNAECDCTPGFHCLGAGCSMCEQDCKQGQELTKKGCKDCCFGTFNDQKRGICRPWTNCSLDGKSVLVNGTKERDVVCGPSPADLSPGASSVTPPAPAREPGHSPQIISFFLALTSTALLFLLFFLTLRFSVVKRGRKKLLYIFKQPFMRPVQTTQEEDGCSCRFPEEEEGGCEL
Procedure, shortened: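 Promega CD137 luciferase reporter Jurkat cells co-cultured with tumor cells (RKO for PD-L1; A549, PC3, HT29 for EphA2) and serially diluted test articles in RPMI + 1% FBS, 6 h at 37° C. Bio-Glo luminescence as fold change over cells alone; log(agonist)-response fit gives EC50 (nM) and max fold induction.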

human PBMCs = assay: Human PBMC co-culture cytokine secretion assay with EphA2-expressing tumor cells (MC38, HT-1080, HT29); assay type: cell-based; conditions: anti-CD3, 48 h, read-out: EC50 of IL-2 cytokine secretion
Protocol: […] MC38 were cultured in Dulbecco's Modified Eagle Medium supplemented with 10% heat inactivated Fetal Bovine Serum (FBS), 1× Penicillin/Streptomycin, 10 mM HEPES, and 2 mM L-Glutamine (referred to as R10 medium). Frozen PBMCs from healthy human donors were thawed and washed once in room temperature PBS with benzonase, and then resuspended in RPMI supplemented with 10% heat inactivated Fetal Bovine Serum (FBS), 1× Penicillin/Streptomycin, 10 mM HEPES, and 2 mM L-Glutamine (herein referred to as R10 medium). 100 μl of PBMCs (1,000,000 PBMCs/ml) and 100 μl of tumor cells (100,000 tumor cells/ml) (Effector:Target cell ratio (E:T) 10:1) were plated in each well of a 96 well flat bottom plate for the co-culture assay. 100 ng/ml of soluble anti-CD3 mAb (clone OKT3) was added to the culture on day 0 to stimulate human PBMCs. Test, control compounds, or vehicle controls were diluted in R10 media and 50 μL was added to respective wells to bring the final volume per well to 250 μL. Plates were covered with a breathable film and incubated in a humidified chamber at 37° C. with 5% CO2 for two days. […] Briefly, the standards and samples were added to a black 96 well plate. Microparticle cocktail (provided in Luminex kit, R&D Systems) was added and shaken for 2 hours at room temperature. The plate was washed 3 times using a magnetic holder. Biotin cocktail was then added to the plate and shaken for 1 hour at RT. The plate was washed 3 times using a magnetic holder. Streptavidin cocktail was added to the plate and shaken for 30 minutes at RT. The plates were washed 3 times using a magnetic holder, resuspended in 100 μL of wash buffer, shaken for 2 minutes at RT, and read using the Luminex 2000. Raw data were analyzed using built-in Luminex software to generate standard curves and interpolate protein concentrations, all other data analyses and graphing were performed using Excel and Prism software. Data represents one study with three independent donor PBMCs tested in experimental duplicates.
Similarly, PBMCs from healthy donors were co-cultured with EphA2 expressing cancer cells (MC38 and HT-1080) at a ratio of 5:1 in presence of anti-CD3 and BCY13272. […]

CCCC[C@@H]1NC(=O)[C@H](Cc2ccc(O)cc2)NC(=O)[C@@H]2CCCN2C(=O)[C@H](CC(=O)O)NC(=O)[C@H](C)NC(=O)[C@H](Cc2ccccc2)NC(=O)[C@@H]2CSCCC(=O)N3CN(CN(C3)C(=O)CCSC[C@@H](C(=O)N[C@@H](C)C(N)=O)NC1=O)C(=O)CCSC[C@H](NC(C)=O)C(=O)N[C@@H](CC(C)(C)C)C(=O)N1CCC[C@H]1C(=O)N[C@@H](CCC(=O)O)C(=O)N[C@H](CCCCNC(=O)CCc1cn(CCOCCOCCOCCN(CCOCCOCCOCCC(=O)N[C@H]3CSCCC(=O)N4CN5CN(C4)C(=O)CCSC[C@H](NC(=O)[C@@H](CC(=O)O)NC(=O)[C@H](Cc4cccc6ccccc46)NC(=O)[C@@H]4CCCN4C3=O)C(=O)N[C@@H](CCSC)C(=O)N[C@@H](CCCCNC(=N)N)C(=O)N[C@@H](CC(=O)O)C(=O)N[C@@H](Cc3c[nH]c4ccccc34)C(=O)N[C@@H](CO)C(=O)N[C@@H]([C@@H](C)O)C(=O)N3CCC[C@H]3C(=O)N3C[C@H](O)C[C@H]3C(=O)N[C@@H](Cc3c[nH]c4ccccc34)C(=O)N[C@H](C(N)=O)CSCCC5=O)CCOCCOCCOCCn3cc(CCC(=O)NCCCC[C@H]4NC(=O)[C@H](CCC(=O)O)NC(=O)[C@@H]5CCCN5C(=O)[C@H](CC(C)(C)C)NC(=O)[C@@H](NC(C)=O)CSCCC(=O)N5CN6CN(C5)C(=O)CCSC[C@H](NC(=O)[C@H](Cc5ccc(O)cc5)NC(=O)[C@@H]5CCCN5C4=O)C(=O)N[C@@H](Cc4ccccc4)C(=O)N[C@@H](C)C(=O)N[C@@H](CC(=O)O)C(=O)N4CCC[C@H]4C(=O)N[C@@H](Cc4ccc(O)cc4)C(=O)N[C@@H](CCCC)C(=O)N[C@H](C(=O)N[C@@H](C)C(N)=O)CSCCC6=O)nn3)nn1)C(=O)N1CCC[C@H]1C(=O)N[C@@H](Cc1ccc(O)cc1)C(=O)N2 [BCY11863]
half-life ([1]; plasma, read-out: plasma T1/2 (converted)): 1.65 h | half-life ([1]; tumor tissue, read-out: tumor T1/2 (converted)): 13.4 h | tumor growth (CT26 #7 tumors): significantly (p<0.0001, Student's t-test) reduced the tumor growth

I: A[hArg]DC[Hyp]LVNPLCLEP[d1Nal]WTC-NH2 / II: Ac-C[tBuAla]PE[dK]PYCFADPY[Nle]CA-NH2 / III: Ac-C[tBuAla]PE[dK]PYCFADPY[Nle]CA-NH2 (linker I:4-I:11-I:18, II:1-II:8-II:15, III:1-III:8-III:15 via TATA; linker I:N-II:5-III:5 via X1) [BCY13272]
EC50 (CD137; co-culture with HT-29): 0.567 nM and 0.187 nM and 0.205 nM | EC50 (CD137; co-culture with PC-3): 0.0805 nM and 0.0898 nM and 0.245 nM | CD137 activation in CD137 reporter assay (CD137; FIG. 16, PC3, A549 and HT29): induces strong CD137 activation | Emax (CD137; co-culture with A549): 25.7 fold and 23.6 fold and 30.2 fold | Emax (CD137; co-culture with HT-29): 36.5 fold and 26 fold and 36.4 fold | Emax (CD137; co-culture with PC-3): 44.2 fold and 53 fold and 44.5 fold | EC50 (human PBMCs; human PBMC-HT-1080 co-culture): 0.55 ± 0.47 nM | EC50 (human PBMCs; human PBMC-MC38 co-culture): 0.79 ± 0.24 nM
